Reference: patent US10813891B2, “Method of inhibiting chronification of pain” (priority 2011, dated 2020)
Values joined by “and” are separate entries in the source; they are usually repeats but may differ in a detail not shown here. Equal values may be shown once. Read-outs that look alike come from different tables or passages of the source.

Tests used:
[1] = test system: CCI-SN rats; assay type: in vivo, rat
Experimental: Male Sprague-Dawley rats (Charles River Laboratories, L'Arbresle, France), weighing 150-200 g on arrival, were used. Animals were maintained under controlled environmental conditions (22±1° C., 60% relative humidity, 12 h/12 h light/dark cycle, food and water ad libitum) starting from reception in the laboratory, for at least 1 week before any intervention or treatment and thereafter, until euthanasia.
Rats were anaesthetized as above and the common sciatic nerve was exposed. Using a dissection microscope (2× magnification), four chromic catgut (5-0) ligations were tied loosely with about 1 mm spacing, proximally to the sciatic trifurcation (Bennett and Xie, 1988). Finally, the skin and muscle were sewed using silk sutures (4-0). In sham-operated animals, the same surgery was performed, but the nerve was not ligated.
Tapentadol (1, 3 and 10 mg/kg i.p.), reboxetine (10 mg/kg i.p.), morphine (1 and 3 mg/kg s.c.) or their vehicle (0.9% NaCl) were injected acutely 14 days after surgery, when allodynia/hyperalgesia reached a plateau in both CCI-SN and CCI-ION rats. Behavioral tests were performed at various times for up to 4 h after injection. In drug association procedure, reboxetine or saline was administered 15 min before morphine or saline.
Subchronic treatment consisted of twice daily injections of tapentadol (10 mg/kg, i.p. at 10:00 am and 6:00 pm) or saline for 4 days starting on the 15th day after nerve ligation in both CCI-ION and CCI-SN rats. Animals were further injected with tapentadol (10 mg/kg i.p.) or saline at 10:00 am the following day (19th day post-surgery), and assessment of allodynia with von Frey filament tests (see below) was made at various times up to 4 hours after this injection. All rats were killed by decapitation 4 hours after the last injection for real-time qRT-PCR determinations of specific mRNAs in ganglia and central tissues (see below).
Before testing, each rat was habituated for 2 h as above, and mechanical sensitivity was then determined with a graded series of […] von Frey filaments, that produced a bending force of 6, 8, 10, 12, 15, 26, and 60 g, respectively. The stimuli were applied within the SN territory (lateral part of the hind paw sole). Each filament was tested three times on the nerve-injured side in increasing order starting with the filament producing the lowest force. As for the CCI-ION rats, the von Frey filaments were applied at least 3 seconds after the rat had returned to its initial resting state. The minimal force filament for which animals presented either a brisk paw withdrawal and/or an escape attempt in response to at least 2 out of the 3 stimulations allowed determination of the mechanical response threshold. The 60.00 g filament was chosen as the cutoff threshold to inhibit any tissue injury.
A—Two weeks after unilateral chronic constriction injury to the sciatic nerve, pressure threshold values (as g) to trigger nocifensive responses to von Frey filaments application onto the plantar surface of ipsilateral hindpaw were determined at various times after acute injection of tapentadol (1, 3 or 10 mg/kg, i.p.) or saline. B—On day 15 (D on abscissa) after nerve ligation, rats were treated subchronically with tapentadol (10 mg/kg, i.p., twice daily, at 10:00 AM and 6:00 PM) or saline for four days. On the following day (day 19 after surgery), both tapentadol- and saline-pretreated CCI-SN rats were injected with tapentadol (10 mg/kg, i.p.; 0 on abscissa) and then subjected to von Frey filaments' test applied to ipsilateral hindpaw for determination of pressure threshold values (as g) at various times thereafter.

[2] = test system: male albino rats (Sprague Dawley) with paw incision; test: Paw incision model for postoperative pain (electronic von Frey, tactile withdrawal threshold); assay type: in vivo, rat
Source text: Post operative, incisional pain is a common form of persistent, acute pain. Brennan et al. (Brennan T J, Vandermeulen E P, and Gebhart G F. Characterization of a rat model of incisional pain. Pain 1996; 64:493-501) developed a post operative model in rats with surgical intervention on the plantar surface of the hind foot for the evaluation of novel analgesic therapeutics. A surgical incision of the rat foot causes a reliable and quantifiable tactile hypersensitivity during the initial post operative period and lasting for several days after surgery. This model may thus be useful for predicting analgesia by investigational agents for post operative pain.
The experiments were carried out in male albino rats (Sprague Dawley) with 170 g-230 g body weight from a commercial breeder (Charles River, Germany). Surgery was performed as previously described. Brennan et al. (Brennan T J, Vandermeulen E P, and Gebhart G F. Characterization of a rat model of incisional pain. Pain 1996; 64:493-501). Briefly, rats were anaesthetised with isoflurane, and a 1 cm longitudinal incision was made, through skin and fascia of the plantar aspect of the foot, starting from the proximal edge of the heel and extending toward the metatarsal toes. The plantaris muscle was elevated and incised longitudinally. The muscle origin and insertion remained intact. After spreading of the muscle and haemostasis with gentle pressure, the skin was closed with two single interrupted sutures. After surgery, the rats were allowed to recover in their home cages and the animals regained consciousness within 2 to 5 minutes. In order to ensure a complete recovery from anaesthesia the baseline value of each individual animal was recorded not until 2 hours after surgery.
The rats were placed in a plastic cage with a wire mesh bottom which allowed full access to the paws. Hind paw withdrawal threshold after mechanical stimulation was tested with electronic von Frey hairs (Somedic Sales AB, Hörby, Sweden). Ten rats were used per experimental group. Animals were placed in a plastic cage with a wire mesh bottom which allowed full access to the paws. Behavioral accommodation was allowed for 30 min. In each case, withdrawal response was measured at an area adjacent to the wound (ipsilateral) and to the same area on the non-injured foot (contralateral). Two hours after surgery, primary hypersensitivity was tested as tactile withdrawal threshold (tactile hyperalgesia) shortly before drug administration and at different time points after drug application. Animals injected with vehicle served as controls. The pretest measurement was made prior to surgery and two thresholds were taken per test and averaged. Ten rats were used per experimental group. Tactile withdrawal threshold was measured pre and after substance administration from day 1 to day 5 post surgery. From day 6 to day 13 post surgery the withdrawal threshold was measured without substance administration (wash out phase). The efficacy was expressed as MPE %=% of maximal possible effect, whereas MPE is defined as 100% reversal of tactile hyperalgesia compared to vehicle group.
Tapentadol at the dose of 14.7 mg/kg intraperitoneal route (i.p.) was adminstered twice daily (BID) (7 a.m./7 p.m.) throughout day 1 to day 5. The first administration was given 20 min before surgery on day 1. From day 6 to day 13 no substance was given (wash out phase) The study scheme is schematically illustrated in FIG. 1.

Question: With `CC[C@@H](c1cccc(O)c1)[C@@H](C)CN(C)C` [Tapentadol, (−)-(1R,2R)-3-(3-dimethylamino-1-ethyl-2-methyl-propyl)-phenol] as the molecule, how does the “anti-allodynic effect after subchronic pretreatment vs saline pretreatment” value ([1]; 10 mg/kg i.p. twice daily for four days, challenge 10 mg/kg i.p. day 19) read?
Answer: The value was “produced the same anti-allodynic effects”.

Question: And the “increase in pressure threshold value” ([1]; acute 1 mg/kg i.p., first 15-30 min after injection, non significant)?
Answer: The value was “approximately 40%”.

Question: And the “pressure threshold values (anti-allodynic effect)” value ([1]; acute 3 mg/kg i.p.)?
Answer: Its value is “also increased pressure threshold values, but to a lower extent than 10 mg/kg i.p”.

Question: And the “pressure threshold values (anti-allodynic effect)” value ([1]; acute 10 mg/kg i.p., 15-30 min after administration)?
Answer: The value was “no longer differed from healthy control values”.

Question: And the mechanical allodynia ([1]; acute 10 mg/kg i.p., 90 min after injection)?
Answer: The mechanical allodynia was “mechanical allodynia did not significantly differ from that measured in saline-treated CCI-SN rats”.

Question: What about the “effect on sustained tactile hyperalgesia following surgical lesion” value ([2]; 14.7 mg/kg i.p. BID day 1-5, washout day 6-13) of the same molecule?
Answer: Its value is “outlasts treatment duration”.

Question: What about the “MPE % (reversal of tactile hyperalgesia)” value ([2]; 14.7 mg/kg i.p. BID day 1-5, d 2_0.5 h (0.5 h after treatment on day 2 after surgery)) of the same molecule?
Answer: Its value is 38.3±5.48% and 38.3 ± 4.58 %.

Question: And the “MPE % (reversal of tactile hyperalgesia)” value ([2]; 14.7 mg/kg i.p. BID, d 3-0.5 h)?
Answer: The value was 36.8 ± 2.41 %.

Question: And the “MPE % (reversal of tactile hyperalgesia)” value ([2]; 14.7 mg/kg i.p. BID, d 4-0.5 h)?
Answer: The value was 34.5 ± 3.27 %.

Question: And the “MPE % (reversal of tactile hyperalgesia)” value ([2]; 14.7 mg/kg i.p. BID, d 5-0.5 h (last day of treatment))?
Answer: Its value is 22.8 ± 5.29 %.

Question: And the “MPE % (reversal of tactile hyperalgesia)” value ([2]; 14.7 mg/kg i.p. BID, d 5-0.5 h (last day of treatment), listed as tapentadol)?
Answer: The value was 22.8±5.29%.

Question: And the “MPE % (reversal of tactile hyperalgesia)” value ([2]; 14.7 mg/kg i.p. BID, pre-d 3 (before administration, day 3))?
Answer: Its value is −0.6 ± 2.21 n.s. %.

Question: What about the “MPE % (reversal of tactile hyperalgesia)” value ([2]; 14.7 mg/kg i.p. BID, pre-d 4) of the same molecule?
Answer: The value was −6.00 ± 1.63 %.

Question: What about the “MPE % (reversal of tactile hyperalgesia)” value ([2]; 14.7 mg/kg i.p. BID, pre-d 5) of the same molecule?
Answer: The value was −6.60 ± 1.67 %.

Question: What about the “remaining efficacy as % of the efficacy after substance treatment on day 5” value ([2]; after 7 days of washout) of the same molecule?
Answer: Its value is 39%.

Question: What about the “remaining efficacy as % of the efficacy after substance treatment on day 5” value ([2]; day 9 (washout)) of the same molecule?
Answer: The value was 74%.

Question: What about the “MPE % (reversal of tactile hyperalgesia)” value ([2]; pre-d 8, washout phase (third day of washout) after 14.7 mg/kg i.p. BID day 1-5) of the same molecule?
Answer: The value was 2.60 ± 2.51 n.s. %.

Question: What about the “MPE % (reversal of tactile hyperalgesia)” value ([2]; pre-d 8, washout phase (third day of washout) after 14.7 mg/kg i.p. BID day 1-5, listed as tapentadol) of the same molecule?
Answer: The value was 3%.

Question: And the “MPE % (reversal of tactile hyperalgesia)” value ([2]; pre-d 10, washout phase after 14.7 mg/kg i.p. BID day 1-5)?
Answer: The value was 11.4 ± 3.21 %.

Question: And the “MPE % (reversal of tactile hyperalgesia)” value ([2]; pre-d 11, washout phase after 14.7 mg/kg i.p. BID day 1-5)?
Answer: The value was 8.90 ± 2.59 %.

Question: And the “MPE % (reversal of tactile hyperalgesia)” value ([2]; pre_d 9, washout phase after 14.7 mg/kg i.p. BID day 1-5)?
Answer: The value was 17.2 ± 3.43 %.

Question: And the “MPE % (reversal of tactile hyperalgesia)” value ([2]; pre_d 9, washout phase after 14.7 mg/kg i.p. BID day 1-5, listed as tapentadol)?
Answer: The value was 17%.

Question: And the “MPE % (reversal of tactile hyperalgesia)” value ([2]; pre_d 12, washout phase (7 days of washout) after 14.7 mg/kg i.p. BID day 1-5)?
Answer: The value was 8.60 ± 3.94 %.

Question: What about the “MPE % (reversal of tactile hyperalgesia)” value ([2]; pre_d 12, washout phase (7 days of washout) after 14.7 mg/kg i.p. BID day 1-5, listed as tapentadol) of the same molecule?
Answer: Its value is 9%.
